According to patent publication US20230094952A1, “Method for Culturing Hematopoietic Stem Cells” (Sumitomo Pharma Co., Ltd., priority 2019, published 2023):

Test system: mouse long-term hematopoietic stem cells
Assay: Reproducibility and concentration dependence test: 1-week culture of sorted Hoxb5-tri-mCherry mouse long-term hematopoietic stem cells, flow cytometry
Format: cell-based
Settings: day 7 of culture, n=2
Method: Mice with insertion of a nucleic acid sequence containing three copies of a gene encoding the fluorescent protein mCherry to the C terminus of the mouse endogenous HoxB5 gene (Hoxb5-tri-mCherry) were used (triple-mCherry Hoxb5 knock-in mice; Non Patent Literature 1). The mice were housed under environmental conditions such that the room temperature and the humidity were 20 to 26° C. and 40 to 70%, respectively, under light for 12 hours and under dark for 12 hours (illumination: 8:00 a.m. to 8:00 p.m.).
Bone marrow cells were collected from the tibia, femur, humerus, and pelvis in each side of each of the mice, and gathered in a mortar. A buffer obtained by adding thermally deactivated bovine serum (manufactured by Gibco) at a final concentration of 2% and EDTA at a final concentration of 2 mM to Ca^2+-free and Mg^2+-free PBS was added, and the resultant was broken with a pestle to obtain a cell population including hematopoietic stem cells.
First, the thus-obtained cell population including hematopoietic stem cells was passed through strainers (meshes) of 100 μm, 70 μm, and 40 μm. The cell population was stained with an APC-binding anti-c-Kit (2B8) and fractionated with anti-APC magnetic beads and an LS column (both manufactured by Miltenyi Biotec) to obtain a cell population enriched with hematopoietic stem cells and progenitor cells.
Subsequently, cells being c-Kit-positive were stained with antibodies for the following cell surface markers.
Staining with the antibodies was performed at 4° C., and the cells were incubated for 30 minutes. For staining with the CD34 antibody, the cells were incubated for 90 minutes. Dead cell staining was performed with SYTOX Red Dead Cell Stain (manufactured by Life Technologies) in accordance with a method recommended by the manufacturer.
Flow cytometry analysis and cell classification (cell sorting) were performed with a FACS Aria II cell sorter (manufactured by BD Biosciences), wherein Lineage-negative, c-Kit-positive, Sca-1-positive, Flk2-negative, CD34-negative or weakly CD34-positive, CD150-positive, and mCherry-positive fractions were regarded as long-term hematopoietic stem cells, and analysis was performed with the software FlowJo (manufactured by Tree Star, Inc.).
The cells after classification were seeded in a 96-well plate. A cell culture medium was prepared by adding Stem Cell Factor (SCF, manufactured by PeproTech, Inc.) and Thrombopoietin (TPO, manufactured by PeproTech, Inc.) to StemSpan SFEM culture medium (manufactured by […] Technologies Inc.) and added in advance to a cell culture 96-well plate (manufactured by BD Biosciences) at 100 μL/well, and the cells sorted with the FACS Aria II cell sorter (BD Biosciences) were then seeded at 10 cells/well.
[…] Thereafter, the cells were cultured in a CO2 incubator under conditions of 37° C. and 5% CO2 for 1 week.
After culture, the cells were stained with the antibodies for the surface markers c-Kit and Sca-1, Ter-119, B220, CD3, CD4, CD8a, Gr-1, and CD11b, and the ratio and post-growth cell count of a KLS fraction (c-Kit^+, Lin^−, Sca-1^+) or an mCherry-positive fraction given with use of a FACS Aria II cell sorter were analyzed by using FlowJo (BD Biosciences). The mCherry-positive fraction is a cell fraction expressing the Hoxb5 gene, and the KLS fraction is a cell fraction being c-Kit-positive, Lin-negative, and Sca-1-positive, and includes hematopoietic stem cells and multipotent progenitor cells as main components. […]

Row | Structure (SMILES) | KLS-positive rate (Table 4, compound 0.1 μM) [%] | Viable cell count (Table 4, compound 0.1 μM) [cell] | mCherry-positive rate (Table 4, compound 0.1 μM) [%] | KLS-positive rate (Table 4, compound 0.3 μM) [%] | Viable cell count (Table 4, compound 0.3 μM) [cell] | mCherry-positive rate (Table 4, compound 0.3 μM) [%] | KLS-positive rate (Table 4, compound 1 μM) [%] | Viable cell count (Table 4, compound 1 μM) [cell] | mCherry-positive rate (Table 4, compound 1 μM) [%] | KLS-positive rate (Table 4, compound 3 μM) [%] | Viable cell count (Table 4, compound 3 μM) [cell] | mCherry-positive rate (Table 4, compound 3 μM) [%] | KLS-positive rate (Table 4, compound 10 μM) [%] | Viable cell count (Table 4, compound 10 μM) [cell] | mCherry-positive rate (Table 4, compound 10 μM) [%] | also measured
1 | C[C@H]1[C@@H](c2ccccc2)O[C@@H]2O[C@@]3(C)CC[C@H]4[C@H](C)CC[C@@H]1[C@@]24OO3 [Example 1-2, (3R,5aS,6R,8aS,9R,10S,12R,12aR)-3,6,9-Trimethyl-10-phenyldecahydro-12H-3,12-epoxypyrano[4,3-j][1,2]benzodioxepine] | 16.0 | 340.5 | 59.9 | 50.0 | 0.5 | 50.0 | 0.0 | 0.5 | 0.0 | 0.0 | 0.5 | 50.0 | 0.0 | 0.0 | 0.0 | 
2 | C[C@H]1[C@H](NS(C)(=O)=O)O[C@@H]2O[C@@]3(C)CC[C@H]4[C@H](C)CC[C@@H]1[C@@]24OO3 [Example 1-11, N-[(3R,5aS,6R,8aS,9R,10R,12R,12aR)-3,6,9-Trimethyldecahydro-12H-3,12-epoxypyrano[4,3-j][1,2]benzodioxepin-10-yl]methanesulfonamide] | 13.2 | 452.5 | 14.3 | 17.6 | 267.0 | 29.2 | 26.0 | 196.0 | 60.4 | 32.4 | 31.0 | 86.2 | 100.0 | 1.5 | 100.0 | 
3 | CS[C@@H]1O[C@@H]2O[C@@]3(C)CC[C@H]4[C@H](C)CC[C@@H]([C@H]1C)[C@@]24OO3 [Example 1-3, (3R,5aS,6R,8aS,9R,10S,12S,12aR)-3,6,9-Trimethyl-10-(methylsulfanyl)decahydro-12H-3,12-epoxypyrano[4,3-j][1,2]benzodioxepine] | 15.8 | 445.0 | 8.0 | 18.6 | 324.0 | 4.7 | 20.3 | 299.5 | 38.6 | 24.2 | 139.0 | 97.0 | 83.4 | 3.5 | 100.0 | 
4 | C[C@H]1[C@H](n2cc(-c3ccccc3)nn2)O[C@@H]2O[C@@]3(C)CC[C@H]4[C@H](C)CC[C@@H]1[C@@]24OO3 [Example 1-9, 4-Phenyl-1-[(3R,5aS,6R,8aS,9R,10R,12R,12aR)-3,6,9-trimethyldecahydro-12H-3,12-epoxypyrano[4,3-j][1,2]benzodioxepin-10-yl]-1H-1,2,3-triazole] | 10.6 | 627.5 | 5.9 | 31.1 | 500.0 | 4.5 | 34.3 | 625.0 | 9.4 | 14.1 | 479.0 | 8.1 | 27.1 | 491.5 | 11.4 | 
5 | C[C@H]1[C@@H](C)O[C@@H]2O[C@@]3(C)CC[C@H]4[C@H](C)CC[C@@H]1[C@@]24OO3 [Example 1-6, (3R,5aS,6R,8aS,9R,10R,12R,12aR)-3,6,9,10-Tetramethyldecahydro-12H-3,12-epoxypyrano[4,3-j][1,2]benzodioxepine] | 34.8 | 147.0 | 2.0 | 20.9 | 190.0 | 15.6 | 19.8 | 183.5 | 24.4 | 17.6 | 215.5 | 80.8 | 47.8 | 37.5 | 98.4 | 
6 | C[C@H]1[C@H](OC(=O)CCC(=O)O)O[C@@H]2O[C@@]3(C)CC[C@H]4[C@H](C)CC[C@@H]1[C@@]24OO3 [Example 1-32, artesunate, reference compound] | 21.0 | 597.5 | 9.4 | 12.4 | 355.5 | 6.0 | 90.6 | 9.0 | 100.0 | 21.2 |  | 53.3 | 0.0 | 1.0 | 25.0 | KLS-positive rate (Table 3, compound 0.1 μM): 36.3%; Viable cell count (Table 3, compound 0.1 μM): 1065.5 cell; mCherry-positive rate (Table 3, compound 0.1 μM): 23.59%; KLS-positive rate (Table 3, compound 0.3 μM): 46.4%; Viable cell count (Table 3, compound 0.3 μM): 540 cell; mCherry-positive rate (Table 3, compound 0.3 μM): 35.1%; KLS-positive rate (Table 3, compound 1 μM): 45.3%; Viable cell count (Table 3, compound 1 μM): 266 cell; mCherry-positive rate (Table 3, compound 1 μM): 91.2%; KLS-positive rate (Table 3, compound 3 μM): 0%; Viable cell count (Table 3, compound 3 μM): 0.5 cell; mCherry-positive rate (Table 3, compound 3 μM): 50%; KLS-positive rate (Table 3, compound 10 μM): 0%; Viable cell count (Table 3, compound 10 μM): 0.5 cell; mCherry-positive rate (Table 3, compound 10 μM): 0%
7 | C[C@H]1[C@H](CN)O[C@@H]2O[C@@]3(C)CC[C@H]4[C@H](C)CC[C@@H]1[C@@]24OO3 [Example 1-18, 1-[(3R,5aS,6R,8aS,9R,10R,12R,12aR)-3,6,9-Trimethyldecahydro-12H-3,12-epoxypyrano[4,3-j][1,2]benzodioxepin-10-yl]methanamine] | 10.9 | 405.0 | 23.5 | 16.7 | 191.0 | 15.4 | 22.4 | 162.0 | 19.2 | 30.9 | 154.0 | 80.5 | 49.6 | 72.5 | 98.6 | 
8 | C[C@H]1[C@@H](OC2CCCCC2)O[C@@H]2O[C@@]3(C)CC[C@H]4[C@H](C)CC[C@@H]1[C@@]24OO3 [Example 1-20, (3R,5aS,6R,8aS,9R,10S,12R,12aR)-10-(cyclohexyloxy)-3,6,9-trimethyldecahydro-12H-3,12-epoxypyrano[4,3-j][1,2]benzodioxepine] | 0.0 | 0.0 | 0.0 | 0.0 | 0.0 | 0.0 | 0.0 | 1.0 | 0.0 | 0.0 | 0.5 | 50.0 | 0.0 | 0.5 | 50.0 | 
